Laboratory results: the supplement of paper PMC10307832

Key:
Experiment in all cases: relative viability (nuclei count vs DMSO), 5 days (fraction); higher = more cells survive
[1] = tested on: NCI-H3122
Outline: (§1)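 Lung cancer cell lines in 1536-well plates got either a single drug or a fixed anchor-drug dose together with five library-drug doses (not always all listed) in √10 steps, by pin tool, on the day after seeding. Nuclei were counted after 5 days, and relative viability is the treated-to-vehicle ratio of nuclei counts. Values are medians of duplicate plates.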

[2] = tested on: SK-MES-1
Outline: as §1

[3] = tested on: NCI-H2405
Outline: as §1

[4] = tested on: NCI-H1651
Outline: as §1

[5] = tested on: SW 1573
Outline: as §1

[6] = tested on: NCI-H2126
Outline: as §1

[7] = tested on: LK-2
Outline: as §1

[8] = tested on: NCI-H838
Outline: as §1

[9] = tested on: NCI-H1792
Outline: as §1

[10] = tested on: NCI-H661
Outline: as §1

[11] = tested on: ABC-1
Outline: as §1

[12] = tested on: NCI-H2023
Outline: as §1

[13] = tested on: NCI-H1395
Outline: as §1

[14] = tested on: HARA
Outline: as §1

[15] = tested on: A-427
Outline: as §1

[16] = tested on: LOU-NH91
Outline: as §1

[17] = tested on: NCI-H460
Outline: as §1

[18] = tested on: NCI-H1734
Outline: as §1

[19] = tested on: COR-L23
Outline: as §1

[20] = tested on: LCLC-97TM1
Outline: as §1

[21] = tested on: NCI-H23
Outline: as §1

[22] = tested on: LU99A
Outline: as §1

[23] = tested on: NCI-H1975
Outline: as §1

Nc1cccc2c1CN(C1CCC(=O)NC1=O)C2=O (centres undefined) [Lenalidomide] + C[C@]1(O)C[C@@H](c2nc(-c3ccc4ccc(-c5ccccc5)nc4c3)c3c(N)nccn32)C1 [Linsitinib] (partner 1 µM)
relative viability ([1]; first compound 0.253 µM): 1.02 | relative viability ([1]; first compound 0.8 µM): 1.04 | relative viability ([1]; first compound 2.53 µM): 0.996 | relative viability ([1]; first compound 8 µM): 0.998 | relative viability ([2]; first compound 0.253 µM): 1.05 | relative viability ([2]; first compound 0.8 µM): 1.03 | relative viability ([2]; first compound 2.53 µM): 1.13 | relative viability ([2]; first compound 8 µM): 0.979 | relative viability ([3]; first compound 0.253 µM): 0.816 | relative viability ([3]; first compound 0.8 µM): 1.05 | relative viability ([3]; first compound 2.53 µM): 0.9 | relative viability ([3]; first compound 8 µM): 0.675 | relative viability ([4]; first compound 0.253 µM): 0.995 | relative viability ([4]; first compound 0.8 µM): 0.968 | relative viability ([4]; first compound 2.53 µM): 1.18 | relative viability ([4]; first compound 8 µM): 0.973 | relative viability ([5]; first compound 0.253 µM): 0.772 | relative viability ([5]; first compound 0.8 µM): 0.866 | relative viability ([5]; first compound 2.53 µM): 0.792 | relative viability ([5]; first compound 8 µM): 0.791 | relative viability ([6]; first compound 0.253 µM): 0.692 | relative viability ([6]; first compound 0.8 µM): 0.681 | relative viability ([6]; first compound 2.53 µM): 0.702 | relative viability ([6]; first compound 8 µM): 0.486 | relative viability ([7]; first compound 0.253 µM): 0.427 | relative viability ([7]; first compound 0.8 µM): 0.355 | relative viability ([7]; first compound 2.53 µM): 0.428 | relative viability ([7]; first compound 8 µM): 0.451 | relative viability ([8]; first compound 0.253 µM): 1.02 | relative viability ([8]; first compound 0.8 µM): 0.98 | relative viability ([8]; first compound 2.53 µM): 1.13 | relative viability ([8]; first compound 8 µM): 0.968 | relative viability ([9]; first compound 0.253 µM): 0.53 | relative viability ([9]; first compound 0.8 µM): 0.457 | relative viability ([9]; first compound 2.53 µM): 0.509 | relative viability ([9]; first compound 8 µM): 0.402 | relative viability ([10]; first compound 0.253 µM): 0.451 | relative viability ([10]; first compound 0.8 µM): 0.526 | relative viability ([10]; first compound 2.53 µM): 0.59 | relative viability ([10]; first compound 8 µM): 0.539 | relative viability ([11]; first compound 0.253 µM): 0.589 | relative viability ([11]; first compound 0.8 µM): 0.732 | relative viability ([11]; first compound 2.53 µM): 0.71 | relative viability ([11]; first compound 8 µM): 0.85 | relative viability ([12]; first compound 0.253 µM): 0.68 | relative viability ([12]; first compound 0.8 µM): 0.831 | relative viability ([12]; first compound 2.53 µM): 0.681 | relative viability ([12]; first compound 8 µM): 0.695 | relative viability ([13]; first compound 0.253 µM): 0.968 | relative viability ([13]; first compound 2.53 µM): 1.23 | relative viability ([13]; first compound 8 µM): 1.03 | relative viability ([14]; first compound 0.253 µM): 0.992 | relative viability ([14]; first compound 0.8 µM): 0.91 | relative viability ([14]; first compound 2.53 µM): 1.18 | relative viability ([14]; first compound 8 µM): 0.906 | relative viability ([15]; first compound 0.253 µM): 1.12 | relative viability ([15]; first compound 2.53 µM): 1.11 | relative viability ([15]; first compound 8 µM): 1.1 | relative viability ([16]; first compound 0.253 µM): 0.912 | relative viability ([16]; first compound 0.8 µM): 0.977 | relative viability ([16]; first compound 2.53 µM): 0.922 | relative viability ([16]; first compound 8 µM): 0.847 | relative viability ([17]; first compound 0.253 µM): 0.777 | relative viability ([17]; first compound 0.8 µM): 0.821 | relative viability ([17]; first compound 2.53 µM): 1.25 | relative viability ([17]; first compound 8 µM): 0.622 | relative viability ([18]; first compound 0.253 µM): 0.878 | relative viability ([18]; first compound 0.8 µM): 1 | relative viability ([18]; first compound 2.53 µM): 0.934 | relative viability ([18]; first compound 8 µM): 0.688 | relative viability ([19]; first compound 0.253 µM): 0.991 | relative viability ([19]; first compound 0.8 µM): 1.12 | relative viability ([19]; first compound 2.53 µM): 1.01 | relative viability ([19]; first compound 8 µM): 0.906 | relative viability ([20]; first compound 0.8 µM): 0.218 | relative viability ([20]; first compound 2.53 µM): 0.157 | relative viability ([20]; first compound 8 µM): 0.137 | relative viability ([21]; first compound 0.253 µM): 0.452 | relative viability ([21]; first compound 0.8 µM): 0.493 | relative viability ([21]; first compound 2.53 µM): 0.688 | relative viability ([21]; first compound 8 µM): 0.45 | relative viability ([22]; first compound 0.253 µM): 0.51 | relative viability ([22]; first compound 0.8 µM): 0.554 | relative viability ([22]; first compound 2.53 µM): 0.466 | relative viability ([22]; first compound 8 µM): 0.352 | relative viability ([23]; first compound 0.253 µM): 1.15 | relative viability ([23]; first compound 0.8 µM): 1 | relative viability ([23]; first compound 2.53 µM): 1.2 | relative viability ([23]; first compound 8 µM): 1.12
